Assay results taken from BindingDB's records for doi:10.1021/jm960459x (University of Minnesota, 1996).
pKi: −log10 of the molar value.

Assay: Compound was tested for the binding affinity and selectivity by competitive inhibition of radioligands on opioid delta receptor in guinea pig brain membranes

Row | SMILES | pKi
1 | CN(C(=O)Cc1ccc(Cl)c(Cl)c1)[C@H](CN1CCCC1)c1cccc(NC(=O)[C@H](N)CC(=O)O)c1 [(R)-3-Amino-N-[3-((S)-1-{[2-(3,4-dichloro-phenyl)-acetyl]-methyl-amino}-2-pyrrolidin-1-yl-ethyl)-phenyl]-succinamic acid] | 6.24
2 | CN(C(=O)Cc1ccc(Cl)c(Cl)c1)[C@H](CN1CCCC1)c1cccc(NC(=O)[C@@H](N)CC(=O)O)c1 [(S)-3-Amino-N-[3-((S)-1-{[2-(3,4-dichloro-phenyl)-acetyl]-methyl-amino}-2-pyrrolidin-1-yl-ethyl)-phenyl]-succinamic acid] | 5.97
